pIC50: −log10 of the molar value.
What was measured:
[1] = system: COLO-829 melanoma xenografts; assay: Plasma human IL-8 (ELISA) in tumor bearing mice; format: in vivo; settings: COLO-829 xenograft; 40 mg/kg i.v. QD×4; 24 hours after the fourth dosing
Source text: (§1) In order to determine whether plasma IL-8 levels could be measurable in tumor xenograft bearing mice and whether plasma IL-8 levels change after treatment with Compound 106, COLO-829 and UACC-62 melanoma xenografts were established as Compound 106 sensitive xenografts in female nude mice. SF-295 human glioblastoma (BRAF wild-type) xenografts were established as an Compound 106 resistant tumor model in female nude mice. Female athymic NU/NU mice were inoculated subcutaneously with COLO-829, UACC-62 human melanoma cancer cells, or SF-295 human glioblastoma cells. Those animals that developed tumors of approximately 250 mm^3 were selected and randomized to two groups. The experiment consisted of a vehicle-treated and 40 mg/kg Compound 106-treated groups of 8 mice per group on the first day of treatment. Compound 106 was administered intravenously (i.v.) on a QD×4 (every day for a total of four injections) dosing schedule. The subcutaneous tumor volumes were measured on the first day of treatment and 24 hours after the fourth treatment. Heparinized blood was collected from these mice 24 hours after the fourth treatment with Compound 106 using a cardiac puncture, and plasma was isolated. The levels of human IL-8 in the plasma were determined by ELISA.

[2] = system: SF-295 human glioblastoma xenografts; assay: Plasma human IL-8 (ELISA) in tumor bearing mice; format: in vivo; settings: SF-295 tumor bearing mice; 40 mg/kg i.v. QD×4; 24 hours after the fourth dosing
Source text: as §1

[3] = system: UACC-62 melanoma xenografts; assay: Plasma human IL-8 (ELISA) in tumor bearing mice; format: in vivo; settings: UACC-62 xenograft; 40 mg/kg i.v. QD×4; 24 hours after the fourth dosing
Source text: as §1

[4] = system: IL-6 secretion by LOX human melanoma cells; assay: IL-6 secretion by LOX melanoma cells (ELISA); format: cell-based; settings: 24 hours
Experimental: Compound 106 (5.0 mg) was weighed and dissolved in 100% anhydrous DMSO (dimethyl sulfoxide, Sigma-Aldrich®, St. Louis, Mo.) to produce a 10 mmol/L stock solution of 3.89 mg/mL. Aliquots of the 10 mmol/L stock solution were stored at −80° C. Then, on each day of an experiment, an aliquot of the stock solution was thawed and diluted 1:10 by adding RPMI-1640 culture medium to obtain a 1 mmol/L solution. Four serial 1:10 dilutions were made from 1 mmol/L working solution by adding 10% DMSO in RPMI-1640 culture medium to obtain 4 additional working solutions. Each of these working stock solutions was further diluted with culture media to obtain diluted working solutions ranging from 1 nmol/L to 10,000 nmol/L. Five mL of each of these diluted working solutions was added to each dish.
LOX human melanoma cells were originally obtained from the DCTD Tumor Repository (Frederick, Md.). The cells were grown in monolayer cultures in RPMI-1640 growth media containing 10% fetal bovine serum (FBS) at 37° C. in a 5% CO2 humidified incubator.
LOX human melanoma cells were plated at 1×10^6 cells into 100 mm dishes. After 48 hours, cells were washed three times with phosphate buffered saline (PBS) and were cultured with RPMI-1640 medium containing 0.1% FBS for another 24 hours. After removing the cell culture medium, fresh RPMI-1640 medium containing Compound 106 (1, 10, 100, 1000, or 10,000 nmol/L) was added to each culture dish and incubated for 24 hours (see Table 5). The control received 0.1% DMSO in RPMI-1640 culture medium alone to measure spontaneous secretion of IL-6 and IL-8. Three separate experiments were performed in duplicate to calculate the mean±SEM.
After a 24 hour incubation with Compound 106 or 0.1% DMSO, 5 mL of cell culture supernatant was collected. Any particulate material was removed by centrifugation. All samples were stored in the −80° C. freezer until analysis. Human IL-6 or IL-8 was determined using an ELISA kit (Human IL-8 ELISA Set, Catalog No. 555244, BD Biosciences, San Diego, Calif. and Human IL-6 ELISA Set, Catalog No. 555220, BD Biosciences, San Diego, Calif.) with the assay procedure provided by the kits. Absorbance was read on a VERSAMAX™ (Molecular Devices, now part of MDS Analytical Technologies, Sunnyvale Calif.).
After removing the cell culture supernatant, 1.0 mL of trypsin was added to the cells for 3 minutes, and then 4 mL of media containing 10% FBS was added for cell counting. Cells were counted using a hematocytometer (Bright Line Counting Chamber, Hausser Scientific, Horsham, Pa.) with a depth of 0.1 mm. The total number of cells was calculated as follows:
Total number of cells in 5 mL=C×10^4/mL×5 mL(C: actual cell count in 1 mm^2)
The level of IL-6 or IL-8 was determined as ng/1×10^6 cells. Inhibition of IL-6 or IL-8 secretion by Compound 106 was expressed as percent of control using the formula below:
Percent of control=(value of treatment−mean value of blank)/(value of control−mean value of blank)×100
The software, Graphpad Prism® (ver. 4, San Diego, Calif.) was used for calculation of mean IC50 values.

CCNc1cc(O)c2c(c1)/C=C/C[C@H](O)[C@H](O)C(=O)/C=C\[C@@H](C)[C@H](C)OC2=O [Compound 106]
Plasma IL-8 levels [1]: almost completely blocked | Plasma IL-8 levels [2]: did not change | Plasma IL-8 levels [3]: almost completely blocked | IL-6 (ng/million cells) Mean ([4]; 1 nmol/L): 9.9 ng/million cells | IL-6 (pg/million cells) Experiment 1 ([4]; 1 nmol/L): 5890 pg/million cells | IL-6 (pg/million cells) Experiment 2 ([4]; 1 nmol/L): 13741 pg/million cells | IL-6 (pg/million cells) Experiment 3 ([4]; 1 nmol/L): 10140 pg/million cells | Protein level of IL-6, Percent (%) of control Experiment 1 ([4]; 1 nmol/L): 46.1% | Protein level of IL-6, Percent (%) of control Experiment 2 ([4]; 1 nmol/L): 53.6% | Protein level of IL-6, Percent (%) of control Experiment 3 ([4]; 1 nmol/L): 115.0% | IL-6 (ng/million cells) Mean ([4]; 10 nmol/L): 8.7 ng/million cells | IL-6 (pg/million cells) Experiment 1 ([4]; 10 nmol/L): 3253 pg/million cells | IL-6 (pg/million cells) Experiment 2 ([4]; 10 nmol/L): 12105 pg/million cells | IL-6 (pg/million cells) Experiment 3 ([4]; 10 nmol/L): 10745 pg/million cells | Protein level of IL-6, Percent (%) of control Experiment 1 ([4]; 10 nmol/L): 21.5% | Protein level of IL-6, Percent (%) of control Experiment 2 ([4]; 10 nmol/L): 47.1% | Protein level of IL-6, Percent (%) of control Experiment 3 ([4]; 10 nmol/L): 121.3% | IL-6 (ng/million cells) Mean ([4]; 100 nmol/L): 0.5 ng/million cells | IL-6 (pg/million cells) Experiment 1 ([4]; 100 nmol/L): 347 pg/million cells | IL-6 (pg/million cells) Experiment 2 ([4]; 100 nmol/L): 643 pg/million cells | IL-6 (pg/million cells) Experiment 3 ([4]; 100 nmol/L): 485 pg/million cells | Protein level of IL-6, Percent (%) of control Experiment 1 ([4]; 100 nmol/L): 2.9% | Protein level of IL-6, Percent (%) of control Experiment 2 ([4]; 100 nmol/L): 2.5% | Protein level of IL-6, Percent (%) of control Experiment 3 ([4]; 100 nmol/L): 5.5% | IL-6 (ng/million cells) Mean ([4]; 1,000 nmol/L): 0.6 ng/million cells | IL-6 (pg/million cells) Experiment 1 ([4]; 1,000 nmol/L): 547 pg/million cells | IL-6 (pg/million cells) Experiment 2 ([4]; 1,000 nmol/L): 986 pg/million cells | IL-6 (pg/million cells) Experiment 3 ([4]; 1,000 nmol/L): 257 pg/million cells | Protein level of IL-6, Percent (%) of control Experiment 1 ([4]; 1,000 nmol/L): 4.6% | Protein level of IL-6, Percent (%) of control Experiment 2 ([4]; 1,000 nmol/L): 3.8% | Protein level of IL-6, Percent (%) of control Experiment 3 ([4]; 1,000 nmol/L): 2.9% | IL-6 (ng/million cells) Mean ([4]; 10,000 nmol/L): 0.2 ng/million cells | IL-6 (pg/million cells) Experiment 1 ([4]; 10,000 nmol/L): 165 pg/million cells | IL-6 (pg/million cells) Experiment 2 ([4]; 10,000 nmol/L): 337 pg/million cells | IL-6 (pg/million cells) Experiment 3 ([4]; 10,000 nmol/L): 132 pg/million cells | Protein level of IL-6, Percent (%) of control Experiment 1 ([4]; 10,000 nmol/L): 1.3% | Protein level of IL-6, Percent (%) of control Experiment 2 ([4]; 10,000 nmol/L): 1.3% | Protein level of IL-6, Percent (%) of control Experiment 3 ([4]; 10,000 nmol/L): 1.6% | activity at 0.001 µM ([4]; Homo sapiens, LOX, 1 nmol/L, read-out: Protein level of IL-6, Mean % of control): 72.2% | activity at 0.01 µM ([4]; Homo sapiens, LOX, 10 nmol/L, read-out: Protein level of IL-6, Mean % of control): 65% | activity at 0.1 µM ([4]; Homo sapiens, LOX, 100 nmol/L, read-out: Protein level of IL-6, Mean % of control): 3.6% | activity at 1 µM ([4]; Homo sapiens, LOX, 1,000 nmol/L, read-out: Protein level of IL-6, Mean % of control): 3.8% | activity at 10 µM ([4]; Homo sapiens, LOX, 10,000 nmol/L, read-out: Protein level of IL-6, Mean % of control): 1.4% | pIC50 ([4]; Homo sapiens, LOX melanoma cell line, read-out: mean calculated IC50, IL-6 protein level): 7.66
